Experimental data: PMC5522529, “Mechanisms of Paradoxical Activation of AMPK by the Kinase Inhibitors SU6656 and Sorafenib” (Cell Chemical Biology, 2017)

Tests used:
Type in all cases: cell-based
[1] = biological target: T1, AMPK-α1 (WT) (Homo sapiens, UniProt Q13131); experiment: AMPK activity of FLAG-tagged AMPK-α1 (WT) expressed in HEK293 cells; details: 1 hr; for AMPK activity and Thr172 phosphorylation: WT FLAG-α1, A769662 300 μM, berberine 300 μM, phenformin 10 mM, troglitazone 100 μM, oligomycin 1 μM, SU6656 100 μM
T1 construct: we expressed FLAG-tagged full-length AMPK-α1 either as the WT or the AT mutant; expressed in transfected cells; host or cells: HEK293
Source text: (§1) (B) Western blotting of the same preparations as in (A). […] (D) Allosteric activation of WT and mutant α1β1γ1 complexes by MT 63-78, curve fitting as for (C). […] (E) Allosteric activation of WT and mutant α1β1γ1 complexes by AMP. Data were fitted to the equation for activation/inactivation by AMP ([Gowans et al., 2013]). […] (F) Activation of WT and AA mutant by various AMPK activators in HEK293 cells. […] FLAG-tagged complexes were isolated by immunoprecipitation and AMPK activity determined (mean ± SEM, n = 2).
(§2) We next expressed the FLAG-tagged WT or AA mutant of AMPK-α1 by transient transfection in HEK293 cells, treated with various agents, and measured AMPK activity in anti-FLAG immunoprecipitates. In Figure 4F, the results are expressed as absolute activities and are accompanied by blots showing Thr172 phosphorylation.
The α1-KD was precipitated using anti-FLAG and endogenous AMPK complexes using anti-α1 antibody, and activity determined. […] (B) Western blots (n = 2) using the indicated antibodies; samples from experiment in (A). (C) DNAs encoding FLAG-tagged AMPK-α1 (WT or AT mutant) were expressed by transient transfection in HEK293 cells, the cells treated with increasing concentrations of SU6656 for 1 hr, AMPK complexes precipitated with anti-FLAG, and activity measured.

[2] = biological target: T2, AMPK-α1 AA mutant (Homo sapiens, UniProt Q13131, K40A/K42A); experiment: AMPK activity of FLAG-tagged AMPK-α1 K40A/K42A (AA) mutant expressed in HEK293 cells; details: AA mutant FLAG-α1; same concentrations, 1 hr
T2 construct: Plasmid encoding full-length human AMPK-α1; expressed in transfected cells; host or cells: HEK293
Source text: as §1, §2

[3] = biological target: T3, endogenous full-length α1 complexes (Homo sapiens, UniProt Q13131); experiment: Activity of endogenous full-length α1 complexes in HEK293 cells; details: 1 hr
T3 construct: endogenous in cells
Source text: (§3) We next expressed an FLAG-tagged α1 kinase domain (α1-KD, residues 1–312) by transient transfection in HEK293 cells, treated the cells with various AMPK activators, and then assayed both the expressed α1-KD (precipitated using anti-FLAG) and endogenous full-length α1 complexes (precipitated using anti-α1 antibodies recognizing an epitope outside the α1-KD). […] This was also observed with A23187, as expected since this ionophore increases intracellular Ca^2+ and activates the alternate upstream kinase CaMKK2.
(§4) The α1-KD was precipitated using anti-FLAG and endogenous AMPK complexes using anti-α1 antibody, and activity determined. Results (mean ± SD, n = 2) are expressed relative to activities in DMSO controls. (B) Western blots (n = 2) using the indicated antibodies; samples from experiment in (A). (C) DNAs encoding FLAG-tagged AMPK-α1 (WT or AT mutant) were expressed by transient transfection in HEK293 cells, the cells treated with increasing concentrations of SU6656 for 1 hr, AMPK complexes precipitated with anti-FLAG, and activity measured. Results (mean ± SD, n = 3) are expressed relative to the DMSO control. […] Results (mean ± SD, n = 3) are expressed relative to the DMSO control. **p < 0.01, ***p < 0.001, ****p < 0.0001, ^†††p < 0.001; ns, not significant.

[4] = biological target: T4, AMPK-α1 AT mutant (Homo sapiens, UniProt Q13131, A167T); experiment: AMPK activity of FLAG-tagged AMPK-α1 AT mutant expressed in HEK293 cells; details: AT mutant FLAG-α1, 1 hr
T4 construct: we expressed FLAG-tagged full-length AMPK-α1 either as the WT or the AT mutant; expressed in transfected cells; host or cells: HEK293 (transient transfection)
Source text: as §4
To confirm that it acted by binding at the catalytic site, we expressed FLAG-tagged full-length AMPK-α1 either as the WT or the AT mutant.

[5] = biological target: T5, human AMPK-α2 Y436F mutant (Homo sapiens, UniProt P54646, Y436F); experiment: AMPK activity of FLAG-tagged Y436F AMPK-α2 expressed in HEK293 cells; details: SU6656 100 μM, phenformin 10 mM, A23187 10 μM, 1 hr
T5 construct: expressed in transfected cells; host or cells: HEK293 (transient transfection)
Description: (§5) Top: AMPK activity (mean ± SEM, n = 4); bottom: western blots showing phosphorylation of Thr172 on AMPK, and of ERK1/2, in cells treated with DMSO (control), SU6656 (100 μM), or PP2 (100 nM) (n = 2). (B) As (A), but in SYF cells. (C) HeLa cells were transfected with DNAs encoding GFP alone, or GFP fused to WT, Y261F/Y365F (FF), or Y36F/Y261F/Y365F (FFF) mutants of LKB1; cells were treated with increasing concentrations of SU6656 for 1 hr and AMPK activity determined (mean ± SEM, n = 4). See also Figure S1. (D) HEK293 cells were transfected with DNAs encoding FLAG-tagged AMPK-α2 with or without a Y436F mutation. Cells were incubated with DMSO (control), 100 μM SU6656, 10 mM phenformin, or 10 μM A23187 for 1 hr; AMPK complexes were immunoprecipitated using anti-FLAG antibody and assayed. The top panels show kinase activities (mean ± SD, n = 3); the bottom panels show blots from the same experiment (n = 2). In all panels, asterisks indicate significant differences from DMSO controls; in (D), there were no significant differences between the WT and Y463F mutant. **p < 0.01, ****p < 0.0001.

[6] = biological target: T6, α1 kinase domain (α1-KD, residues 1–312) (Homo sapiens, UniProt Q13131); experiment: Activity of FLAG-tagged α1 kinase domain expressed in HEK293 cells; details: 1 hr
T6 construct: amplifying residues 1-312 with an N-terminal FLAG-tag; expressed in transfected cells; host or cells: HEK293 (transient transfection, pcDNA5 FRT)
Source text: as §3, §4
A plasmid encoding the AMPK-α2 kinase domain (α2-KD) was made by amplifying residues 1-310 with 5' BamH1 and 3' Xho1 sites, the resulting PCR product was cloned into pGEX6P2. Point mutations were generated using the Quikchange II site-directed mutagenesis kit (Stratagene) and confirmed by DNA sequencing.

[7] = biological target: human AMPK-α2 (WT) (Homo sapiens, UniProt P54646); experiment: AMPK activity of FLAG-tagged WT AMPK-α2 expressed in HEK293 cells; details: SU6656 100 μM, phenformin 10 mM, A23187 10 μM, 1 hr
Description: as §5

T1 sequence (Q13131 whole entry): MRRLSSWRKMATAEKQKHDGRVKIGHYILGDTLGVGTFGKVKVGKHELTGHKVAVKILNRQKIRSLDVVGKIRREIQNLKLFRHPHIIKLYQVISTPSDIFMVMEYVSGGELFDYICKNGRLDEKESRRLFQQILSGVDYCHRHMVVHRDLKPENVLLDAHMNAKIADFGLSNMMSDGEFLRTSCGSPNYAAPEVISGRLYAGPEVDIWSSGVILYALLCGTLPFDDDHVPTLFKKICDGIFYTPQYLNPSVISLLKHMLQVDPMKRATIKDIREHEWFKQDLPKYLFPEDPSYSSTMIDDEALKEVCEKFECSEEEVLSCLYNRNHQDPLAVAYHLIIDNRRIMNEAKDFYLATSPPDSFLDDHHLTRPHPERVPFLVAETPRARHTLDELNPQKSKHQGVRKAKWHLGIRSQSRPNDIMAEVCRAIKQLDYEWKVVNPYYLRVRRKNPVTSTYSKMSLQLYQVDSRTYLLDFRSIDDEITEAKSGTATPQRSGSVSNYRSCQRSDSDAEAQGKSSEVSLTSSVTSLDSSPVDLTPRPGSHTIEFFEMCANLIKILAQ
T1 sequence (P54619 whole entry partner): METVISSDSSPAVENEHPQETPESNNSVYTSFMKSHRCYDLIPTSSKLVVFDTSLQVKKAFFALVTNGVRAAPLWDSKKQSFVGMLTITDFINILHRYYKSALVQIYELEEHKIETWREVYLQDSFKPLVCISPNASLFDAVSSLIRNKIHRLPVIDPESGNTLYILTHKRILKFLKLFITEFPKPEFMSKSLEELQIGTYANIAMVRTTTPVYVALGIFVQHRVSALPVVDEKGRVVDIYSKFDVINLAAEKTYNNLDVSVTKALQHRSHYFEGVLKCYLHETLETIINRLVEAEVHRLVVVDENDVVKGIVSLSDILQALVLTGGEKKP
T2 sequence (Q13131 whole entry K40A/K42A): as the sequence (Q13131 whole entry) above, with K40A, K42A counted along it
T2 sequence (P54619 whole entry partner): as the sequence (P54619 whole entry partner) above
T3 sequence (Q13131 whole entry): as the sequence (Q13131 whole entry) above
T3 sequence (P54619 whole entry partner): as the sequence (P54619 whole entry partner) above
T6 sequence (Q13131 1-312): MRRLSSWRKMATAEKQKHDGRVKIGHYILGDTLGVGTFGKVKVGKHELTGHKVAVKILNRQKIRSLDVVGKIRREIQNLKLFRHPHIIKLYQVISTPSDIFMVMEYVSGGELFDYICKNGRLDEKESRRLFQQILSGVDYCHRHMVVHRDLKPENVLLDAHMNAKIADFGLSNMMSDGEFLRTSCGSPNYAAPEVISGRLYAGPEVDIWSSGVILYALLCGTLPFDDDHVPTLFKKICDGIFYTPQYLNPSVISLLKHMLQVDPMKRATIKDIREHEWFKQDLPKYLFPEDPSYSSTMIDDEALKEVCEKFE
T5 sequence (P54646 whole entry Y436F): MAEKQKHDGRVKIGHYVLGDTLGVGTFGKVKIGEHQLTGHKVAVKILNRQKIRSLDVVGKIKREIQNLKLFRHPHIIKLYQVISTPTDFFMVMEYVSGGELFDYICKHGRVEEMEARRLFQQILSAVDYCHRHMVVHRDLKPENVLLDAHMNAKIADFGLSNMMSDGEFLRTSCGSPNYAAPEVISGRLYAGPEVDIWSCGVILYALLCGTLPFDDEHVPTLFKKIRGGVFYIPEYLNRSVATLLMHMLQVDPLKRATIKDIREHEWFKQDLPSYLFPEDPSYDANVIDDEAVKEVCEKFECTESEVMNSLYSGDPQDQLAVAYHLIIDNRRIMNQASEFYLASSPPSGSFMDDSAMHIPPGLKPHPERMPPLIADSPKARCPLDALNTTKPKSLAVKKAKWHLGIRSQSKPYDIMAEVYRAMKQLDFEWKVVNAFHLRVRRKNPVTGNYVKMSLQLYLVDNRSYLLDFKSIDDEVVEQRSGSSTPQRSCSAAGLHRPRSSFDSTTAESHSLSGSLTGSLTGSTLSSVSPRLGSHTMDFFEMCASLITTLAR
T5 sequence (P54619 whole entry partner): as the sequence (P54619 whole entry partner) above
human AMPK-α2 (WT), sequence (P54646 whole entry): as the sequence (P54646 whole entry Y436F) above, with F436Y counted along it
human AMPK-α2 (WT), sequence (P54619 whole entry partner): as the sequence (P54619 whole entry partner) above
T4 sequence (Q13131 whole entry A167T): as the sequence (Q13131 whole entry) above, with A167T counted along it
T4 sequence (P54619 whole entry partner): as the sequence (P54619 whole entry partner) above

With `CC[C@H]1/C=C/C=C/C[C@@H](C)[C@H](O)[C@@](C)(O)C(=O)[C@@H](C)[C@H](O)[C@@H](C)C(=O)[C@@H](C)[C@H](O)[C@@H](C)/C=C/C(=O)O[C@@H]2[C@H](C)[C@H](CC1)O[C@]1(CC[C@H](C)[C@H](C[C@@H](C)O)O1)[C@H]2C` [oligomycin] the “AMPK activity and Thr172 phosphorylation” value [1] was “activated AMPK and caused Thr172 phosphorylation” and the “effect of AA mutation on AMPK activation” value [2] was “abolished”.

For `[H]/N=C(/N)N/C(=N/[H])NCCc1ccccc1` [phenformin], the “kinase activity / Thr172 phosphorylation” value [3] was “doing this with the endogenous complexes”, the AMPK activity [4] was “activated equally well” and the AMPK activity ([1]; WT FLAG-α1 (comparison with AT mutant)) was “activated equally well”. For the same molecule, the “AMPK activity and Thr172 phosphorylation” value [1] was “activated AMPK and caused Thr172 phosphorylation”, the “AMPK activation response with Y436F mutation” value [5] was “unaffected by the Y436F mutation” and the “kinase activity / Thr172 phosphorylation” value [6] was “failed to activate or cause Thr172 phosphorylation”. For the same molecule, the “AMPK activity in anti-FLAG immunoprecipitates” value [7] was “all activated AMPK” and the “effect of AA mutation on AMPK activation” value [2] was “abolished”.

With `Cc1c(C)c2c(c(C)c1O)CCC(C)(COc1ccc(CC3SC(=O)NC3=O)cc1)O2` (centres unmarked) [troglitazone] the “kinase activity / Thr172 phosphorylation” value [3] was “doing this with the endogenous complexes”, the “AMPK activity and Thr172 phosphorylation” value [1] was “activated AMPK and caused Thr172 phosphorylation” and the “kinase activity / Thr172 phosphorylation” value [6] was “failed to activate or cause Thr172 phosphorylation”. The “effect of AA mutation on AMPK activation” value [2] was “abolished”.
